Here are results for ten compounds from US20260365682A1, “MODULATORS OF TNF-ALPHA ACTIVITY” (Forward Therapeutics, Inc., priority 2022, published 2026).

Like-named read-outs stand apart in the source and are kept apart here.

This test has as its target T1, TNF-α (Homo sapiens, UniProt P01375).
T1 construct: purchased R&D 210-TA-020/CF
Nature of the test: TNF-α Induced HEK Blue Cellular Assay (secreted alkaline phosphatase expression, QUANTI-Blue). The format is cell-based. The settings on record: HEK Blue TNFα reporter cells, TNF-α 100 μg/ml, 24 hrs at 37° C., inhibition of secreted alkaline phosphatase. The method, boiled down: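 HEK Blue TNFα reporter cells (10,000/well) in DMEM with 10% FBS received compound ([…] to 0.5 nM final) and TNF-α at […] final for 24 h at 37° C. Secreted alkaline phosphatase read with QUANTI-Blue at 620 nm. IC50 came from a 4-parameter logistic fit after normalising to unstimulated and stimulated DMSO controls.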

T1 sequence (P01375 77-233 limits assumed): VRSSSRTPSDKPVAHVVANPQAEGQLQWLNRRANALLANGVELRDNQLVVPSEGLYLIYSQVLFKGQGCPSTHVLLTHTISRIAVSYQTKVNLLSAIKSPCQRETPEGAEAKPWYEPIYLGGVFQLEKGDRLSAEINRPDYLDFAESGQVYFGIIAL

For orientation: IC50 means the concentration that inhibits the measured activity by half. `[2H]C([2H])([2H])N1C(=O)c2cccc(OC(F)F)c2[C@H]2C[C@@H]1c1nc3ccc(C#CC(=O)O)cc3n12` [Example 37, 3-((7R,14R)-1-(difluoromethoxy)-6-(methyl-d3)-5-oxo-5,6,7,14-tetrahydro-7,14-methanobenzo[f]benzo[4,5]imidazo[1,2-a][1,4]diazocin-11-yl)propiolic Acid]: the IC50 (read-out: IC50 value) is under 100 nM.

`[2H]C([2H])([2H])N1C(=O)c2cccc(OC(F)F)c2[C@H]2C[C@@H]1c1nc3ccc(C#CC(=O)OC(C)C)cc3n12` [Example 38, isopropyl 3-((7R,14R)-1-(difluoromethoxy)-6-(methyl-d3)-5-oxo-5,6,7,14-tetrahydro-7,14-methanobenzo[f]benzo[4,5]imidazo[1,2-a][1,4]diazocin-11-yl)propiolate]: the half-inhibitory concentration (IC50) (IC50 value) is under 100 nM.

`[2H]C([2H])([2H])N1C(=O)c2cccc(OC(F)F)c2[C@H]2C[C@@H]1c1nc3ccc(C#CC)cc3n12` [Example 39, (7R,14R)-1-(difluoromethoxy)-6-(methyl-d3)-11-(prop-1-yn-1-yl)-6,7-dihydro-7,14-methanobenzo[f]benzo[4,5]imidazo[1,2-a][1,4]diazocin-5(14H)-one]: where the note is “read-out: IC50 value”, the half-inhibitory concentration (IC50) was under 100 nM.

For the compound `[2H]C([2H])([2H])N1C(=O)c2cccc(OC(F)F)c2[C@H]2C[C@@H]1c1nc3ccc(C#CC(=O)OCC)cc3n12` [Example 40, ethyl 3-((7R,14R)-1-(difluoromethoxy)-6-(methyl-d3)-5-oxo-5,6,7,14-tetrahydro-7,14-methanobenzo[f]benzo[4,5]imidazo[1,2-a][1,4]diazocin-11-yl)propiolate], the IC50 (IC50 value) is under 100 nM.

Regarding `[2H]C([2H])([2H])N1C(=O)c2cccc(OC(F)F)c2[C@H]2C[C@@H]1c1nc3ccc(C#Cc4cnoc4)cc3n12` [Example 41, (7R,14R)-1-(difluoromethoxy)-11-(isoxazol-4-ylethynyl)-6-(methyl-d3)-6,7-dihydro-7,14-methanobenzo[f]benzo[4,5]imidazo[1,2-a][1,4]diazocin-5(14H)-one], the IC50 (read-out: IC50 value) was under 100 nM.

With `[2H]C([2H])([2H])N1C(=O)c2cccc(OC(F)F)c2[C@H]2C[C@@H]1c1nc3ccc(C#CCOC)cc3n12` [Example 42, (7R,14R)-1-(difluoromethoxy)-11-(3-methoxyprop-1-yn-1-yl)-6-(methyl-d3)-6,7-dihydro-7,14-methanobenzo[f]benzo[4,5]imidazo[1,2-a][1,4]diazocin-5(14H)-one], the IC50 (read-out: IC50 value) is 100 to 1000 nM.

`[2H]C([2H])([2H])N1C(=O)c2cccc(OC(F)F)c2[C@H]2C[C@@H]1c1nc3ccc(C#CCOCC)cc3n12` [Example 43, (7R,14R)-1-(difluoromethoxy)-11-(3-ethoxyprop-1-yn-1-yl)-6-(methyl-d3)-6,7-dihydro-7,14-methanobenzo[f]benzo[4,5]imidazo[1,2-a][1,4]diazocin-5(14H)-one]: under “read-out: IC50 value”, the 50% inhibitory concentration (IC50) was under 100 nM.

Turning to `[2H]C([2H])([2H])N1C(=O)c2cccc(OC(F)F)c2[C@H]2C[C@@H]1c1nc3ccc(C#C)cc3n12` [Example 44, (7R,14R)-1-(difluoromethoxy)-11-ethynyl-6-(methyl-d3)-6,7-dihydro-7,14-methanobenzo[f]benzo[4,5]imidazo[1,2-a][1,4]diazocin-5(14H)-one], where the note is “read-out: IC50 value”, the IC50 was under 100 nM.

Consider `[2H]C([2H])([2H])N1C(=O)c2cccc(OC(F)F)c2[C@H]2C[C@@H]1c1nc3ccc(C#Cc4ncns4)cc3n12` [Example 45, (7R,14R)-11-((1,2,4-thiadiazol-5-yl)ethynyl)-1-(difluoromethoxy)-6-(methyl-d3)-6,7-dihydro-7,14-methanobenzo[f]benzo[4,5]imidazo[1,2-a][1,4]diazocin-5(14H)-one], for which the IC50 (read-out: IC50 value) is under 100 nM.

Consider `[2H]C([2H])([2H])N1C(=O)c2cccc(OC(F)F)c2[C@H]2C[C@@H]1c1nc3ccc(C#Cc4nnc(CNC)s4)cc3n12` [Example 46, (7R,14R)-1-(difluoromethoxy)-6-(methyl-d3)-11-((5-((methylamino)methyl)-1,3,4-thiadiazol-2-yl)ethynyl)-6,7-dihydro-7,14-methanobenzo[f]benzo[4,5]imidazo[1,2-a][1,4]diazocin-5(14H)-one], for which, under “read-out: IC50 value”, the half-maximal inhibitory concentration (IC50) lay in the range of 100 to 1000 nM.
